Tested on: R77C mutated α-sarcoglycan
Test: Immunofluorescence marking of α-sarcoglycan at the membrane of non-permeabilized quadri-transfected HER 911 cells
Format: cell-based, human
Conditions: 24 h treatment; for membrane localization of the R77C-mutated α-sarcoglycan protein: HER 911 cells quadri-transfected with α(R77C)-, β-, γ-, δ-sarcoglycan; for membrane addressing of the sarcoglycan complex: quadritransfected HER 911 cells
Procedure: HER-911 (“Human Embryonic Retinoblast”) cells have been inoculated in vials and cultivated up to a 80% confluence in Dulbecco's modified Eagle's+GlutaMAX (Gibco, Invitrogen) medium containing 10% of fetal calf serum, 0.01 mg/ml of gentamicin, and 1% MEM Non Essential Amino Acids (Gibco, Invitrogen). The cells have been maintained in a humidified atmosphere with 5% C02, at 37° C.
The HER-91 cells have been transfected by means of 12 μl of Fugene.6 Transfection Reagent (Roche) for 2 μg of plasmid (0.5 μg of each of the 4 sarcoglycan (SG) constructions for HER-911 cells). The plasmids expressing the SG, pcDNA3.V5-his_hα-SG, pcDNA3.V5-his_hβ-SG, pcDNA3.V5-his_hγ-SG, and pcDNA3.V5-his_hδ1-SG (transcriptional type-1 variant), are plasmids where the expression of the coding sequence of the respective sarcoglycans is under control of the CMV promoter.
After 48 h, the cells have been treated for 24 h with 5 μM of 5-aza-2′-deoxycytidine or 1 μM of SAHA (Suberoylanilide hydroxamnic acid).
The HER-911 cells have been fixed by incubation with 3.7% of formaldehyde for 15 min at room temperature. If necessary, a permeabilization has been performed by using 0.2% Triton X-100 for 20 min. After having been saturated with 20% fetal calf serum for 30 min, the cells have been incubated with primary antibodies at adapted dilutions (in PBS) for 1 h at room temperature. A monoclonal murine antibody specific for α-SG (NCL-A-SARC) is available from Novocastra. The cells have been washed 3 times with PBS and then incubated for 1 h with secondary antibodies diluted by 1/1,000 in PBS. Finally, the cells have been washed in PBS, mounted by using a Vectashield Mounting Medium with DAPI (Vector, H-1200), and then examined with a confocal immunofluorescence microscope (Leica).
HER 911 human cells have been quadri-transfected with plasmids coding β-, γ-, and δ-sarcoglycans and a plasmid coding either non-mutated α-sarcoglycan (FIG. 1A and FIG. 2A), or R77C mutated α-sarcoglycan (FIGS. 1B and 1C; FIGS. 2B and 2C).
An immunomarking has then been performed on the non-permeabilized cells by using an antibody directed against the extracellular portion of the α-sarcoglycan, which enables to visualize the protein only at the cellular membrane level and thus to compare the addressing of the mutated protein with that of the normal protein.

O=C(CCCCCCC(=O)Nc1ccccc1)NO [SAHA, suberoylanilide hydroxamic acid]
membrane localization of the R77C-mutated α-sarcoglycan protein (1 μM, FIG. 2C): restores the membrane localization of the R77C-mutated protein | membrane addressing of the sarcoglycan complex (1 μM): enabled to reconstitute the complex at the membrane

Nc1ncn([C@@H]2O[C@H](CO)[C@@H](O)[C@H]2O)c(=O)n1 [5-azacytidine]
membrane localization of the R77C-mutated α-sarcoglycan protein (5 μM, FIG. 1C): restores the membrane localization of the R77C-mutated protein | membrane addressing of the sarcoglycan complex (5 μM): enabled to reconstitute the complex at the membrane

From patent US9526742B2, “Use of epigenome-modifying compounds for the treatment of genetic muscular diseases linked to a protein-conformational disorder” (GENETHON, priority 2012, dated 2016)
